Laboratory results reported in PubChem BioAssay AID256 (DTP/NCI, 2004).
Toxic doses and inconclusive results are not listed. Rule for the calls: active = survival T/C of 150% or more; inactive = T/C below 125% in these data.

Tested on: CD2F1 mice, L1210 leukemia ip, survival T/C
Assay: NCI In Vivo Anticancer Drug Screen. Data for tumor model L1210 Leukemia (intraperitoneal) in CD2F1 (CDF1) mice
Conditions: endpoint: mean survival time, higher = longer survival
Outline: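 Antitumor effect is scored in animals hosting a serially transplanted tumor. Values compare compound-dosed animals against vehicle-only controls as a simple quotient.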

[1] = dose: 100.0 mg/kg/injection, schedule: Q01DX009 (ip), vehicle: saline with Tween-80
[2] = dose: 200.0 mg/kg/injection, schedule: Q01DX009 (ip), vehicle: saline with Tween-80
[3] = dose: 400.0 mg/kg/injection, schedule: Q01DX009 (ip), vehicle: saline with Tween-80
[4] = dose: 100.0 mg/kg/injection, schedule: Q04DX002 (ip), vehicle: saline with Tween-80
[5] = dose: 200.0 mg/kg/injection, schedule: Q04DX002 (ip), vehicle: saline with Tween-80
[6] = dose: 400.0 mg/kg/injection, schedule: Q04DX002 (ip), vehicle: saline with Tween-80
[7] = dose: 25.0 mg/kg/injection, schedule: Q01DX005 (ip), vehicle: water
[8] = dose: 50.0 mg/kg/injection, schedule: Q01DX005 (ip), vehicle: water
[9] = dose: 100.0 mg/kg/injection, schedule: Q01DX005 (ip), vehicle: water
[10] = dose: 25.0 mg/kg/injection, schedule: Q04DX003 (ip), vehicle: saline with Tween-80
[11] = dose: 50.0 mg/kg/injection, schedule: Q04DX003 (ip), vehicle: saline with Tween-80
[12] = dose: 100.0 mg/kg/injection, schedule: Q04DX003 (ip), vehicle: saline with Tween-80
[13] = dose: 200.0 mg/kg/injection, schedule: Q04DX003 (ip), vehicle: saline with Tween-80
[14] = dose: 400.0 mg/kg/injection, schedule: Q04DX003 (ip), vehicle: saline with Tween-80
[15] = dose: 100.0 mg/kg/injection, schedule: Q01DX001 (ip), vehicle: saline
[16] = dose: 200.0 mg/kg/injection, schedule: Q01DX001 (ip), vehicle: saline
[17] = dose: 400.0 mg/kg/injection, schedule: Q01DX001 (ip), vehicle: saline

Measured: T/C

CC(=O)CC(C)(C)O
inactive: [1] 95 % of control | dose: 100.0 mg/kg/injection, schedule: Q04DX003 (ip), vehicle: saline sonified 102 % of control | [2] 96 % of control | dose: 200.0 mg/kg/injection, schedule: Q04DX003 (ip), vehicle: saline sonified 100 % of control | [3] 95 % of control | dose: 400.0 mg/kg/injection, schedule: Q04DX003 (ip), vehicle: saline sonified 97 % of control

O=C(NCC1CCCCO1)Nc1ccc(Cl)cc1 (configuration not stated)
inactive: [4] 110 % of control | [5] 102 % of control | [6] 94 % of control

OCC1OC(n2cnc3c2NC=N[C@@H]3CO)C(O)C1O (some centres not stated)
inactive: dose: 12.5 mg/kg/injection, schedule: Q01DX005 (ip), vehicle: water 100 % of control | [7] 100 % of control | [8] 104 % of control | [9] 109 % of control | dose: 200.0 mg/kg/injection, schedule: Q01DX005 (ip), vehicle: water 111 % of control

Cc1cc(=O)c2ccccc2n1C
inactive: dose: 5.0 mg/kg/injection, schedule: Q04DX002 (ip), vehicle: saline 98 % of control | dose: 10.0 mg/kg/injection, schedule: Q04DX002 (ip), vehicle: saline 98 % of control | dose: 20.0 mg/kg/injection, schedule: Q04DX002 (ip), vehicle: saline 98 % of control

CCOC(=O)c1oc(C)nc1C
inactive: dose: 12.5 mg/kg/injection, schedule: Q01DX001 (ip), vehicle: Klucel (hydroxypropylcellulose) (HPC) 90 % of control | dose: 25.0 mg/kg/injection, schedule: Q01DX001 (ip), vehicle: Klucel (hydroxypropylcellulose) (HPC) 104 % of control | dose: 50.0 mg/kg/injection, schedule: Q01DX001 (ip), vehicle: Klucel (hydroxypropylcellulose) (HPC) 98 % of control | dose: 100.0 mg/kg/injection, schedule: Q01DX001 (ip), vehicle: Klucel (hydroxypropylcellulose) (HPC) 101 % of control | dose: 200.0 mg/kg/injection, schedule: Q01DX001 (ip), vehicle: Klucel (hydroxypropylcellulose) (HPC) 98 % of control

COc1ccc(NC(=O)Nc2ccc(OC)cc2Cl)cc1
inactive: [4] 90 % of control | [5] 86 % of control | [6] 90 % of control

CC(C)(C)c1nc2ccccc2p1-c1ccccc1 (configuration not stated)
inactive: dose: 100.0 mg/kg/injection, schedule: Q01DX001 (ip), vehicle: other 98 % of control | dose: 200.0 mg/kg/injection, schedule: Q01DX001 (ip), vehicle: other 91 % of control | dose: 400.0 mg/kg/injection, schedule: Q01DX001 (ip), vehicle: other 95 % of control

CN(C)Cc1cc(Cl)cc(CN(C)C)c1O
inactive: [10] 105 % of control | [11] 97 % of control | [12] 101 % of control

CC(=O)OC1CCC2(C)C(=CCC3C2CCC2(C)C(C(=O)CC(O)(C(F)(F)F)C(F)(F)F)CCC32)C1 (configuration not stated)
inactive: dose: 12.5 mg/kg/injection, schedule: Q04DX002 (ip), vehicle: saline with Tween-80 98 % of control | dose: 25.0 mg/kg/injection, schedule: Q04DX002 (ip), vehicle: saline with Tween-80 90 % of control | dose: 50.0 mg/kg/injection, schedule: Q04DX002 (ip), vehicle: saline with Tween-80 94 % of control

O=C(Nc1cccc(Cl)c1)Nc1ccccc1Cl
inactive: [10] 93 % of control | [11] 96 % of control | [12] 95 % of control | [13] 89 % of control | [14] 97 % of control

OC(Cc1cnc2ccccc2n1)(C(F)(F)F)C(F)(F)F
inactive: [12] 94 % of control | [13] 98 % of control | [14] 103 % of control

C=C(Cl)CSCCS
inactive: dose: 50.0 mg/kg/injection, schedule: Q01DX009 (ip), vehicle: acetone 101 % of control | dose: 100.0 mg/kg/injection, schedule: Q01DX009 (ip), vehicle: acetone 103 % of control

O=c1nc2n(CCO)c3ccccc3cc-2c(=O)[nH]1
inactive: [15] 95 % of control | [16] 95 % of control | [17] 89 % of control

COc1cc(-c2[nH]c(=S)[nH]c(=O)c2CCO)cc(OC)c1OC
inactive: [12] 98 % of control | [13] 98 % of control | [14] 91 % of control

CCOC(=O)/C(C#N)=C1/C=CCCC1
inactive: dose: 75.0 mg/kg/injection, schedule: Q01DX001 (ip), vehicle: saline 97 % of control | dose: 150.0 mg/kg/injection, schedule: Q01DX001 (ip), vehicle: saline 104 % of control | dose: 300.0 mg/kg/injection, schedule: Q01DX001 (ip), vehicle: saline 97 % of control

O=P(N1CCCC1)(N1CCCC1)N1CCCC1.O=[N+]([O-])O.O=[N+]([O-])O.[O]=[U]=[O]
inactive: dose: 3.12 mg/kg/injection, schedule: Q04DX003 (ip), vehicle: Klucel (hydroxypropylcellulose) (HPC) 102 % of control | dose: 12.5 mg/kg/injection, schedule: Q04DX003 (ip), vehicle: Klucel (hydroxypropylcellulose) (HPC) 102 % of control

CC(OC(=O)c1ccc([N+](=O)[O-])cc1)C(C)(C)C (configuration not stated)
inactive: [15] 98 % of control | [16] 100 % of control | [17] 96 % of control

C=C1C(=O)OC2/C=C(\C)CC/C=C(/C)CC(OC(=O)/C(=C/CO)CO)C12 (configuration not stated)
inactive: dose: 10.0 mg/kg/injection, schedule: Q01DX009 (ip), vehicle: Klucel (hydroxypropylcellulose) (HPC) 96 % of control | dose: 20.0 mg/kg/injection, schedule: Q01DX009 (ip), vehicle: Klucel (hydroxypropylcellulose) (HPC) 100 % of control | dose: 40.0 mg/kg/injection, schedule: Q01DX009 (ip), vehicle: Klucel (hydroxypropylcellulose) (HPC) 95 % of control

COC(=O)C(N)CSCSCc1ccccc1 (configuration not stated)
inactive: [7] 101 % of control | [8] 93 % of control | [9] 93 % of control

CC(C)N(C=C(C#N)C#N)C(C)C
inactive: dose: 12.5 mg/kg/injection, schedule: Q01DX009 (ip), vehicle: saline with Tween-80 91 % of control | dose: 25.0 mg/kg/injection, schedule: Q01DX001 (ip), vehicle: saline with Tween-80 103 % of control | dose: 25.0 mg/kg/injection, schedule: Q01DX009 (ip), vehicle: saline with Tween-80 96 % of control | dose: 50.0 mg/kg/injection, schedule: Q01DX001 (ip), vehicle: saline with Tween-80 107 % of control | dose: 100.0 mg/kg/injection, schedule: Q01DX001 (ip), vehicle: saline with Tween-80 98 % of control

CC12CC(c3ccccc3)C(C)(C(c3ccccc3)=C1c1ccccc1)C2(O)c1ccccc1 (configuration not stated)
inactive: [4] 94 % of control | [5] 86 % of control | [6] 94 % of control

CCSC(C)C
inactive: dose: 100.0 mg/kg/injection, schedule: Q01DX009 (ip), vehicle: saline 101 % of control | dose: 200.0 mg/kg/injection, schedule: Q01DX009 (ip), vehicle: saline 96 % of control | dose: 400.0 mg/kg/injection, schedule: Q01DX009 (ip), vehicle: saline 98 % of control

O=C(c1ccc([N+](=O)[O-])cc1)C(Br)C(Br)c1ccncc1 (configuration not stated)
inactive: [12] 95 % of control | [13] 97 % of control | [14] 103 % of control

O=C(Nc1ccc(Nc2ccc(NC(=O)c3ccccc3)c3c2C(=O)c2ccccc2C3=O)c2c1C(=O)c1ccccc1C2=O)c1ccccc1
inactive: [1] 95 % of control | [12] 108 % of control | [2] 95 % of control | [13] 100 % of control | [3] 100 % of control | [14] 102 % of control

COc1ccc(OC)c(CC(C(C)=O)C(C)=O)c1
inactive: dose: 12.5 mg/kg/injection, schedule: Q01DX009 (ip), vehicle: water 100 % of control | dose: 25.0 mg/kg/injection, schedule: Q01DX009 (ip), vehicle: water 96 % of control | dose: 50.0 mg/kg/injection, schedule: Q01DX009 (ip), vehicle: water 100 % of control | dose: 100.0 mg/kg/injection, schedule: Q01DX009 (ip), vehicle: water 98 % of control | dose: 200.0 mg/kg/injection, schedule: Q01DX009 (ip), vehicle: water 95 % of control

C=C1C(=O)OC2CC(C)C3C=CC(=O)C3CC12 (configuration not stated)
inactive: dose: 0.5 mg/kg/injection, schedule: Q01DX009 (ip), vehicle: Klucel (hydroxypropylcellulose) (HPC) 106 % of control | dose: 1.0 mg/kg/injection, schedule: Q01DX009 (ip), vehicle: Klucel (hydroxypropylcellulose) (HPC) 102 % of control | dose: 18.75 mg/kg/injection, schedule: Q01DX009 (ip), vehicle: Klucel (hydroxypropylcellulose) (HPC) 105 % of control
